Assay results published in ChEMBL document CHEMBL4825741, “Novel Histone Acetyltransferase (HAT) Inhibitors for Treating Diseases” (ACS Med Chem Lett, 2021).

Experiment: Inhibition of p300/CBP HAT (unknown origin) by scintillation proximity assay
Parameters: species or system Homo sapiens

Compound	IC50 [nM]
CC(=O)N1CC(Oc2ccc(NC(=O)[C@H](NC[C@@H](C)c3ccc(C#N)cc3)c3ccccc3)nc2)C1	21.2
CC(=O)N1CC(Oc2ccc(NC(=O)[C@@H](NC[C@@H](C)c3ccc(C#N)cc3)c3ccccc3)nc2)C1	14
Cn1cc(COc2ccc(NC(=O)[C@@H](NCCc3ccc(Cl)cc3)c3ccccc3)nc2)cn1	16.8
CN1CCC(Oc2ccc(NC(=O)[C@H](NCCc3ccc(Cl)cc3)c3ccccc3)nc2)CC1	26.6
CC(CN[C@H](C(=O)Nc1ccc(OC2CCN(C(=O)C3CC3)CC2)cn1)c1ccccc1)c1ccc(C#N)cc1 (stereo partly specified)	26.7
CC(=O)N1CC(Oc2ccc(NC(=O)[C@H](NCC(C)c3ccc(C#N)cc3)c3cccc(F)c3)nc2)C1 (stereo partly specified)	23.3
